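Where inhibition never reached the appropriate level, the endpoint shown equals the highest concentration tested. Otherwise, values were interpolated linearly from a five-concentration, 48-hour dose response in 96-well plates. Abbreviation: GI50, concentration required for 50% inhibition of growth.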 Active and inactive are the calls of the source. Cut-off read from the data, not from the text of the source: active = GI50 up to about 1.1 µM and inactive = higher.
Legend:
Experiment in all cases: NCI tumour cell line growth inhibition, 48 h
A498 = tested on: A498
K562 = tested on: K562
NCI-H460 = tested on: NCI-H460
786-0 = tested on: 786-0
HCC 2998 = tested on: HCC 2998
UO-31 = tested on: UO-31
NCI-H23 = tested on: NCI-H23
OVCAR-5 = tested on: OVCAR-5
Hs-578T = tested on: Hs-578T
MOLT-4 = tested on: MOLT-4
MDA-MB-231 = tested on: MDA-MB-231
OVCAR-3 = tested on: OVCAR-3
SK-MEL-2 = tested on: SK-MEL-2
A549 = tested on: A549
MDA-N = tested on: MDA-N
HOP-92 = tested on: HOP-92
CAKI-1 = tested on: CAKI-1
CCRF-CEM = tested on: CCRF-CEM
HT-29 = tested on: HT-29
KM12 = tested on: KM12
LOX IMVI = tested on: LOX IMVI
SW-620 = tested on: SW-620
SK-OV-3 = tested on: SK-OV-3
OVCAR-8 = tested on: OVCAR-8
M14 = tested on: M14
ACHN = tested on: ACHN
SF-295 = tested on: SF-295
MDA-MB-435 = tested on: MDA-MB-435
TK-10 = tested on: TK-10
HL-60 = tested on: HL-60
SF-268 = tested on: SF-268
NCI-H226 = tested on: NCI-H226
NCI-H522 = tested on: NCI-H522
RPMI-8226 = tested on: RPMI-8226
U-251 = tested on: U-251
SN12C = tested on: SN12C
T47D = tested on: T47D
OVCAR-4 = tested on: OVCAR-4
EKVX = tested on: EKVX
SNB-75 = tested on: SNB-75
SK-MEL-28 = tested on: SK-MEL-28
RXF 393 = tested on: RXF 393
MCF7 = tested on: MCF7
COLO 205 = tested on: COLO 205
UACC-257 = tested on: UACC-257
SNB-19 = tested on: SNB-19
BT-549 = tested on: BT-549
NCI/ADR-RES = tested on: NCI/ADR-RES
DU-145 = tested on: DU-145
IGROV-1 = tested on: IGROV-1
SK-MEL-5 = tested on: SK-MEL-5
HCT-15 = tested on: HCT-15
HCT-116 = tested on: HCT-116
HOP-62 = tested on: HOP-62
UACC-62 = tested on: UACC-62
PC-3 = tested on: PC-3
SR = tested on: SR
SF-539 = tested on: SF-539

Structure (SMILES): COc1cc2c(/C=C3/C(=O)Nc4ccccc43)c(Cl)[nH]c2cc1C
- GI50 (A498): 0.0632 µM (active)
- GI50 (K562): 0.0601 µM (active)
- GI50 (NCI-H460): 0.0716 µM (active)
- GI50 (786-0): 0.0605 µM (active)
- GI50 (HCC 2998): 0.0861 µM (active)
- GI50 (UO-31): 0.0745 µM (active)
- GI50 (NCI-H23): 0.0407 µM (active)
- GI50 (OVCAR-5): 0.129 µM (active)
- GI50 (Hs-578T): 0.0427 µM (active)
- GI50 (MOLT-4): 0.118 µM (active)
- GI50 (MDA-MB-231): 0.0893 µM (active)
- GI50 (OVCAR-3): 0.0434 µM (active)
- GI50 (SK-MEL-2): 0.082 µM (active)
- GI50 (A549): 0.0619 µM (active)
- GI50 (MDA-N): 0.0191 µM (active)
- GI50 (HOP-92): 1.43 µM (inactive)
- GI50 (CAKI-1): 0.0689 µM (active)
- GI50 (CCRF-CEM): 0.0583 µM (active)
- GI50 (HT-29): 0.0495 µM (active)
- GI50 (KM12): 0.0329 µM (active)
- GI50 (LOX IMVI): 0.0631 µM (active)
- GI50 (SW-620): 0.0855 µM (active)
- GI50 (SK-OV-3): 0.0314 µM (active)
- GI50 (OVCAR-8): 0.0869 µM (active)
- GI50 (M14): 0.0366 µM (active)
- GI50 (ACHN): 0.0923 µM (active)
- GI50 (SF-295): 0.0252 µM (active)
- GI50 (MDA-MB-435): 0.0141 µM (active)
- GI50 (TK-10): 0.173 µM (active)
- GI50 (HL-60): 0.035 µM (active)
- GI50 (SF-268): 0.0644 µM (active)
- GI50 (NCI-H226): 0.373 µM (active)
- GI50 (NCI-H522): 0.0446 µM (active)
- GI50 (RPMI-8226): 0.0551 µM (active)
- GI50 (U-251): 0.041 µM (active)
- GI50 (SN12C): 0.0845 µM (active)
- GI50 (T47D): 13.7 µM (inactive)
- GI50 (OVCAR-4): 0.0521 µM (active)
- GI50 (EKVX): 0.0521 µM (active)
- GI50 (SNB-75): 0.192 µM (active)
- GI50 (SK-MEL-28): 9.12 µM (inactive)
- GI50 (RXF 393): 0.311 µM (active)
- GI50 (MCF7): 0.0502 µM (active)
- GI50 (COLO 205): 0.0552 µM (active)
- GI50 (UACC-257): 1.52 µM (inactive)
- GI50 (SNB-19): 0.0486 µM (active)
- GI50 (BT-549): 0.0603 µM (active)
- GI50 (NCI/ADR-RES): 0.0263 µM (active)
- GI50 (DU-145): 0.0955 µM (active)
- GI50 (IGROV-1): 0.034 µM (active)
- GI50 (SK-MEL-5): 0.0467 µM (active)
- GI50 (HCT-15): 0.0408 µM
- GI50 (HCT-116): 0.0597 µM (active)
- GI50 (HOP-62): 0.107 µM (active)
- GI50 (UACC-62): 0.0371 µM (active)
- GI50 (PC-3): 0.0435 µM (active)
- GI50 (SR): 0.0414 µM (active)
- GI50 (SF-539): 0.0234 µM (active)

Structure (SMILES): O=C(CCC(=O)c1ccc(Cl)cc1)NO
- GI50 (A498): > 100 µM (inactive)
- GI50 (K562): > 100 µM (inactive)
- GI50 (NCI-H460): > 100 µM (inactive)
- GI50 (786-0): > 100 µM (inactive)
- GI50 (HCC 2998): > 100 µM (inactive)
- GI50 (UO-31): > 100 µM (inactive)
- GI50 (NCI-H23): > 100 µM (inactive)
- GI50 (OVCAR-5): > 100 µM (inactive)
- GI50 (Hs-578T): > 100 µM (inactive)
- GI50 (MOLT-4): > 100 µM (inactive)
- GI50 (MDA-MB-231): > 100 µM (inactive)
- GI50 (OVCAR-3): > 100 µM (inactive)
- GI50 (SK-MEL-2): > 100 µM (inactive)
- GI50 (A549): > 100 µM (inactive)
- GI50 (MDA-N): > 100 µM (inactive)
- GI50 (HOP-92): > 100 µM (inactive)
- GI50 (CAKI-1): > 100 µM (inactive)
- GI50 (CCRF-CEM): > 100 µM (inactive)
- GI50 (HT-29): > 100 µM (inactive)
- GI50 (KM12): > 100 µM (inactive)
- GI50 (LOX IMVI): > 100 µM (inactive)
- GI50 (SW-620): > 100 µM (inactive)
- GI50 (SK-OV-3): > 100 µM (inactive)
- GI50 (OVCAR-8): > 100 µM (inactive)
- GI50 (M14): > 100 µM (inactive)
- GI50 (ACHN): > 100 µM (inactive)
- GI50 (SF-295): > 100 µM (inactive)
- GI50 (MDA-MB-435): > 100 µM (inactive)
- GI50 (TK-10): > 100 µM (inactive)
- GI50 (HL-60): > 100 µM (inactive)
- GI50 (SF-268): > 100 µM (inactive)
- GI50 (NCI-H226): > 100 µM (inactive)
- GI50 (NCI-H522): > 100 µM (inactive)
- GI50 (RPMI-8226): > 100 µM (inactive)
- GI50 (U-251): > 100 µM (inactive)
- GI50 (SN12C): > 100 µM (inactive)
- GI50 (T47D): > 100 µM (inactive)
- GI50 (OVCAR-4): > 100 µM (inactive)
- GI50 (EKVX): > 100 µM (inactive)
- GI50 (SNB-75): > 100 µM (inactive)
- GI50 (SK-MEL-28): > 100 µM (inactive)
- GI50 (RXF 393): > 100 µM (inactive)
- GI50 (MCF7): > 100 µM (inactive)
- GI50 (COLO 205): > 100 µM (inactive)
- GI50 (UACC-257): > 100 µM (inactive)
- GI50 (SNB-19): > 100 µM (inactive)
- GI50 (BT-549): > 100 µM (inactive)
- GI50 (NCI/ADR-RES): > 100 µM (inactive)
- GI50 (DU-145): > 100 µM (inactive)
- GI50 (IGROV-1): > 100 µM (inactive)
- GI50 (SK-MEL-5): > 100 µM (inactive)
- GI50 (HCT-15): > 100 µM
- GI50 (HCT-116): > 100 µM (inactive)
- GI50 (HOP-62): > 100 µM (inactive)
- GI50 (UACC-62): > 100 µM (inactive)
- GI50 (PC-3): > 100 µM (inactive)
- GI50 (SR): > 100 µM (inactive)
- GI50 (SF-539): > 100 µM (inactive)
